Test results: patent US10696615B2, “Prenylated hydroxystilbenes” (The University of Sydney, priority 2011, dated 2020)

Columns and labels:
MCF7 = experiment: NCI in vitro cancer screen, Breast Cancer; format: cell-based, human; details: MCF7, Breast Cancer
786-0 = experiment: NCI in vitro cancer screen, Renal Cancer; format: cell-based, human; details: 786-0, Renal Cancer
NCI-H226 = experiment: NCI in vitro cancer screen, Non-Small Cell Lung Cancer; format: cell-based, human; details: NCI-H226, Non-Small Cell Lung Cancer
HL-60 (TB) = experiment: NCI in vitro cancer screen, Leukemia; format: cell-based, human; details: HL-60(TB), Leukemia
HT29 = experiment: NCI in vitro cancer screen, Colon Cancer; format: cell-based, human; details: HT29, Colon Cancer
K-562 = experiment: NCI in vitro cancer screen, Leukemia; format: cell-based, human; details: K-562, Leukemia
UO-31 = experiment: NCI in vitro cancer screen, Renal Cancer; format: cell-based, human; details: UO-31, Renal Cancer
A498 = experiment: NCI in vitro cancer screen, Renal Cancer; format: cell-based, human; details: A498, Renal Cancer
HOP-62 = experiment: NCI in vitro cancer screen, Non-Small Cell Lung Cancer; format: cell-based, human; details: HOP-62, Non-Small Cell Lung Cancer
TK-10 = experiment: NCI in vitro cancer screen, Renal Cancer; format: cell-based, human; details: TK-10, Renal Cancer
SF-268 = experiment: NCI in vitro cancer screen, CNS Cancer; format: cell-based, human; details: SF-268, CNS Cancer
NCI-H322M = experiment: NCI in vitro cancer screen, Non-Small Cell Lung Cancer; format: cell-based, human; details: Non-Small Cell Lung Cancer
A549/ATCC = experiment: as above; format: cell-based, human; details: Non-Small Cell Lung Cancer
EKVX = experiment: as above; format: cell-based, human; details: Non-Small Cell Lung Cancer
MDA-MB-468 = experiment: NCI in vitro cancer screen, Breast Cancer; format: cell-based, human; details: MDA-MB-468, Breast Cancer
RPMI-8226 = experiment: NCI in vitro cancer screen, Leukemia; format: cell-based, human; details: RPMI-8226, Leukemia
SNB-75 = experiment: NCI in vitro cancer screen, CNS Cancer; format: cell-based, human; details: SNB-75, CNS Cancer
SF-295 = experiment: NCI in vitro cancer screen, CNS Cancer; format: cell-based, human; details: SF-295, CNS Cancer
SN12C = experiment: NCI in vitro cancer screen, Renal Cancer; format: cell-based, human; details: Renal Cancer
UACC-257 = experiment: NCI in vitro cancer screen, Melanoma; format: cell-based, human; details: UACC-257, Melanoma
IGROV1 = experiment: NCI in vitro cancer screen, Ovarian Cancer; format: cell-based, human; details: IGROV1, Ovarian Cancer
OVCAR-3 = experiment: NCI in vitro cancer screen, Ovarian Cancer; format: cell-based, human; details: OVCAR-3, Ovarian Cancer
RXF-393 = experiment: NCI in vitro cancer screen, Renal Cancer; format: cell-based, human; details: RXF 393, Renal Cancer
T-47D = experiment: NCI in vitro cancer screen, Breast Cancer; format: cell-based, human; details: Breast Cancer
SR = experiment: NCI in vitro cancer screen, Leukemia; format: cell-based, human; details: Leukemia
SF-539 = experiment: NCI in vitro cancer screen, CNS Cancer; format: cell-based; details: SF-539, CNS Cancer
SW-620 = experiment: NCI in vitro cancer screen, Colon Cancer; format: cell-based, human; details: SW-620, Colon Cancer
HS 578T = experiment: NCI in vitro cancer screen, Breast Cancer; format: cell-based, human; details: Breast Cancer
MDA-MB-435 = experiment: NCI in vitro cancer screen, Melanoma; format: cell-based, human; details: MDA-MB-435, Melanoma
[1] = Homo sapiens, read-out: LC50 (the source's name)

Q: How did the GI50 (MCF7; Homo sapiens) turn out when `CC(C)=CCOc1cc(O)cc(/C=C/c2ccc(O)c(O)c2)c1CC=C(C)C` [USYDS14, (E)-2-(3-methyl-2-buten-1-yl)-3-(3-methyl-2-butenyloxy)-3′,4′,5-trihydroxystilbene] was run?
A: 2.74 µM

Q: And the CC50 (MCF7; [1])?
A: 41.9 µM

Q: And the TGI (MCF7)?
A: 11.8 µM

Q: What about the TGI (786-0) of the same compound?
A: 11.8 µM

Q: What about the GI50 (786-0; Homo sapiens) of the same compound?
A: 3.44 µM

Q: And the LC50 (50% net cell kill) (786-0; Homo sapiens)?
A: 40 µM

Q: And the GI50 (NCI-H226; Homo sapiens)?
A: 1.72 µM

Q: What about the LC50 (50% lethal concentration) (NCI-H226; Homo sapiens) of the same compound?
A: 7.52 µM

Q: And the TGI (NCI-H226)?
A: 3.6 µM

Q: And the TGI (HL-60 (TB))?
A: 16.3 µM

Q: And the GI50 (HL-60 (TB); Homo sapiens)?
A: 4.06 µM

Q: What about the CC50 (HL-60 (TB); [1]) of the same compound?
A: > 100 µM

Q: And the TGI (HT29)?
A: 29.1 µM

Q: What about the GI50 (HT29; Homo sapiens, HT-29) of the same compound?
A: 14 µM

Q: And the CC50 (HT29; Homo sapiens, HT-29, read-out: LC50 (the source's name))?
A: 60.9 µM

Q: And the GI50 (K-562; Homo sapiens, K562)?
A: 0.833 µM

Q: What about the CC50 (K-562; Homo sapiens, K562, read-out: LC50 (the source's name)) of the same compound?
A: > 100 µM

Q: And the TGI (K-562)?
A: 14.2 µM

Q: What about the GI50 (UO-31; Homo sapiens) of the same compound?
A: 3.71 µM

Q: What about the CC50 (UO-31; [1]) of the same compound?
A: 46.3 µM

Q: What about the TGI (UO-31) of the same compound?
A: 17.9 µM

Q: And the TGI (A498)?
A: 26.6 µM

Q: And the GI50 (A498; Homo sapiens)?
A: 13 µM

Q: What about the CC50 (A498; [1]) of the same compound?
A: 54.6 µM

Q: And the TGI (HOP-62)?
A: 3.77 µM

Q: What about the GI50 (HOP-62; Homo sapiens) of the same compound?
A: 1.43 µM

Q: And the CC50 (HOP-62; [1])?
A: 9.98 µM

Q: And the GI50 (TK-10; Homo sapiens)?
A: 3.79 µM

Q: What about the LC50 (TK-10; Homo sapiens) of the same compound?
A: 35.4 µM

Q: What about the TGI (TK-10) of the same compound?
A: 12.1 µM

Q: And the GI50 (SF-268; Homo sapiens)?
A: 4.65 µM

Q: And the CC50 (SF-268; [1])?
A: 48.5 µM

Q: And the TGI (SF-268)?
A: 17.8 µM

Q: What about the GI50 (NCI-H322M; Homo sapiens) of the same compound?
A: 12.5 µM

Q: And the LC50 (50% lethal concentration) (NCI-H322M; Homo sapiens)?
A: 52.8 µM

Q: And the TGI (NCI-H322M)?
A: 25.7 µM

Q: And the GI50 (A549/ATCC; Homo sapiens)?
A: 4.33 µM

Q: What about the CC50 (A549/ATCC; [1]) of the same compound?
A: 45.5 µM

Q: What about the TGI (A549/ATCC) of the same compound?
A: 16.5 µM

Q: What about the GI50 (EKVX; Homo sapiens) of the same compound?
A: 6.45 µM

Q: What about the CC50 (EKVX; [1]) of the same compound?
A: 51.7 µM

Q: What about the TGI (EKVX) of the same compound?
A: 21.2 µM

Q: And the GI50 (MDA-MB-468; Homo sapiens)?
A: 1.42 µM

Q: What about the CC50 (MDA-MB-468; [1]) of the same compound?
A: 16.4 µM

Q: And the TGI (MDA-MB-468)?
A: 4.12 µM

Q: And the GI50 (RPMI-8226; Homo sapiens)?
A: 4.07 µM

Q: What about the CC50 (RPMI-8226; [1]) of the same compound?
A: > 100 µM

Q: What about the TGI (RPMI-8226) of the same compound?
A: 24.5 µM

Q: What about the GI50 (SNB-75; Homo sapiens) of the same compound?
A: 1.79 µM

Q: What about the CC50 (SNB-75; [1]) of the same compound?
A: 29.3 µM

Q: What about the TGI (SNB-75) of the same compound?
A: 7.8 µM

Q: And the GI50 (SF-295; Homo sapiens)?
A: 3.91 µM

Q: And the CC50 (SF-295; [1])?
A: 43.1 µM

Q: And the TGI (SF-295)?
A: 15.3 µM

Q: And the GI50 (SN12C; Homo sapiens)?
A: 3.61 µM

Q: And the CC50 (SN12C; [1])?
A: 42 µM

Q: And the TGI (SN12C)?
A: 15.1 µM

Q: And the GI50 (UACC-257; Homo sapiens)?
A: 10.2 µM

Q: What about the CC50 (UACC-257; [1]) of the same compound?
A: 54 µM

Q: And the TGI (UACC-257)?
A: 23.5 µM

Q: And the GI50 (IGROV1; Homo sapiens, IGROV-1)?
A: 3.65 µM

Q: What about the CC50 (IGROV1; Homo sapiens, IGROV-1, read-out: LC50 (the source's name)) of the same compound?
A: 65.4 µM

Q: And the TGI (IGROV1)?
A: 13.7 µM

Q: What about the GI50 (OVCAR-3; Homo sapiens) of the same compound?
A: 3.52 µM

Q: What about the CC50 (OVCAR-3; [1]) of the same compound?
A: 41.1 µM

Q: What about the TGI (OVCAR-3) of the same compound?
A: 13.5 µM

Q: And the GI50 (RXF-393; Homo sapiens)?
A: 1.07 µM

Q: What about the CC50 (RXF-393; [1]) of the same compound?
A: 14.8 µM

Q: And the TGI (RXF-393)?
A: 3.58 µM

Q: What about the TGI (T-47D) of the same compound?
A: 7.84 µM

Q: What about the GI50 (T-47D; Homo sapiens, T47D) of the same compound?
A: 2.71 µM

Q: What about the CC50 (T-47D; Homo sapiens, T47D, read-out: LC50 (the source's name)) of the same compound?
A: 61.8 µM

Q: And the GI50 (SR; Homo sapiens)?
A: 0.67 µM

Q: And the CC50 (SR; [1])?
A: > 100 µM

Q: And the TGI (SR)?
A: 24.6 µM

Q: And the GI50 (SF-539; Homo sapiens)?
A: 2.96 µM

Q: And the CC50 (SF-539; [1])?
A: 37.8 µM

Q: And the TGI (SF-539)?
A: 10.5 µM

Q: What about the GI50 (SW-620; Homo sapiens) of the same compound?
A: 2.88 µM

Q: And the CC50 (SW-620; [1])?
A: 63.8 µM

Q: What about the TGI (SW-620) of the same compound?
A: 16.7 µM

Q: What about the TGI (HS 578T) of the same compound?
A: 20.5 µM

Q: And the GI50 (HS 578T; Homo sapiens)?
A: 2.71 µM

Q: And the CC50 (HS 578T; [1])?
A: > 100 µM

Q: What about the GI50 (MDA-MB-435; Homo sapiens) of the same compound?
A: 0.373 µM

Q: And the CC50 (MDA-MB-435; [1])?
A: 40 µM

Q: What about the TGI (MDA-MB-435) of the same compound?
A: 8.45 µM
